Source: US9409952B2, “Peptide-compound cyclization method” (Chugai Seiyaku Kabushiki Kaisha, priority 2011, dated 2016)
Where two headings read alike, the source gives them in different places. Starred links: 1 amine or outer side, 2 acyl side, 3 side chain; linkers in the order of their positions; H or OH if unused. Positions of bridges follow the written chain, without caps; N, C: chain ends. Non-standard residues stand in square brackets, D forms with d. Residues, ends and D or L forms follow the SMILES beside them. *: point of attachment. Phe(4-(CH2)5CO) = O=C([C@H](Cc1ccc(CCCCCC(=O)[*:3])cc1)N[*:1])[*:2]; Phe(3-(CH2)4CO) = O=C([C@H](Cc1cccc(CCCCC(=O)[*:3])c1)N[*:1])[*:2]; Tyr(3-F) = N[C@@H](Cc1ccc(O)c(F)c1)C(=O)O; NEtPhe = CCN[C@@H](Cc1ccccc1)C(=O)O; NMeF = CN[C@@H](Cc1ccccc1)C(=O)O; NMeI = CC[C@H](C)[C@H](NC)C(=O)O; AllylGly = C=CC[C@H](N)C(=O)O; NMeL = CN[C@@H](CC(C)C)C(=O)O; Ala(CN) = N#CC[C@H](N)C(=O)O; NMeV = CN[C@H](C(=O)O)C(C)C; NMeA = CN[C@@H](C)C(=O)O; Piperidide = C1CCN(*)CC1; dNMeA = CN[C@H](C)C(=O)O; Sar = CNCC(=O)O; tBu = CC(C)(C)*

Assay: Metabolic stability in human hepatic microsome
Format: in vitro ADME
Conditions: for microsomal CLint at 1 uM: microsomes
[1] = pH 7.4, human hepatic microsome, NADPH(+), read-out: CL NADPH(+)

CC[C@H](C)[C@@H]1NC(=O)[C@H](Cc2ccccc2)N(C)C(=O)[C@H](Cc2ccccc2)NC(=O)[C@H](CC(C)C)N(C)C(=O)[C@H](CC(C)C)NC(=O)[C@H](C)NC(=O)C[C@@H](C(=O)N2CCCCC2)NC(=O)[C@H]([C@@H](C)O)NC(=O)[C@H](C)N(C)C1=O [DP-86] (AL[NMeL]F[NMeF]I[NMeA]TD-Piperidide; lactam N-9)
microsomal CLint at 1 uM [1]: 237 µL/min/mg

CC[C@H](C)[C@@H]1NC(=O)[C@H](C)N(C)C(=O)CCCCc2cccc(c2)C[C@@H](C(=O)N2CCCCC2)NC(=O)[C@H](CC(C)C)N(C)C(=O)[C@H](C)N(C)C(=O)[C@H]([C@@H](C)O)NC(=O)[C@H](Cc2ccccc2)N(C)C(=O)[C@H](Cc2ccccc2)N(C)C(=O)[C@H](CC(C)C)N(C)C1=O [DP-849] ([NMeA]I[NMeL][NMeF][NMeF]T[NMeA][NMeL][Phe(3-(CH2)4CO)]-Piperidide; lactam N-9)
microsomal CLint at 1 uM [1]: 202 µL/min/mg

C=C1CCC(=O)N(C)[C@@H](Cc2ccccc2)C(=O)N[C@@H](CC(C)C)C(=O)N(C)[C@@H](CC(C)C)C(=O)N[C@@H]([C@@H](C)O)C(=O)N(C)CC(=O)N(C)[C@@H]([C@@H](C)CC)C(=O)N[C@@H](COC(C)(C)C)C(=O)N(C)[C@@H](Cc2ccccc2)C(=O)N(C)[C@@H](C(C)C)C(=O)N[C@H](C(=O)N2CCCCC2)Cc2cccc1c2 [DP-851]
microsomal CLint at 1 uM [1]: 99 µL/min/mg

C=C1CCC(=O)N[C@@H](CC(C)C)C(=O)N(C)[C@@H](CC(C)C)C(=O)N(C)[C@@H](Cc2ccccc2)C(=O)N[C@@H](C)C(=O)N(C)[C@@H](Cc2ccccc2)C(=O)N(C)[C@@H]([C@@H](C)CC)C(=O)N[C@@H]([C@@H](C)O)C(=O)N(C)CC(=O)N(C)[C@@H](CC(C)C)C(=O)N[C@H](C(=O)N2CCCCC2)Cc2cccc1c2 [DP-855]
microsomal CLint at 1 uM [1]: 210 µL/min/mg

C=CC[C@@H]1NC(=O)[C@H](Cc2ccccc2)N(C)C(=O)[C@H]([C@@H](C)O)NC(=O)[C@H](CC(C)C)N(C)C(=O)[C@H](Cc2ccccc2)NC(=O)[C@H](C)NC(=O)C[C@@H](C(=O)N(C)[C@@H](Cc2ccccc2)C(=O)N[C@@H](C)C(=O)N2CCCCC2)NC(=O)[C@H](CC(C)C)NC(=O)[C@H](CC(C)C)N(C)C(=O)[C@H](C)N(C)C1=O [DP-612] (AF[NMeL]T[NMeF][AllylGly][NMeA][NMeL]LD[NMeF]A-Piperidide; lactam N-10)
microsomal CLint at 1 uM [1]: 155 µL/min/mg

CC[C@H](C)[C@@H]1NC(=O)[C@H](CC(C)C)N(C)C(=O)[C@H](Cc2ccccc2)N(C)C(=O)CCCCCc2ccc(cc2)C[C@@H](C(=O)N2CCCCC2)NC(=O)[C@H](CC(C)C)N(C)C(=O)[C@H](C)N(C)C(=O)[C@H]([C@@H](C)O)NC(=O)[C@H](Cc2ccccc2)N(C)C(=O)[C@H](C)N(C)C1=O [DP-835] ([NMeF][NMeL]I[NMeA][NMeF]T[NMeA][NMeL][Phe(4-(CH2)5CO)]-Piperidide; lactam N-9)
microsomal CLint at 1 uM [1]: 497 µL/min/mg

CC[C@H](C)[C@H]1C(=O)N[C@@H](Cc2ccccc2)C(=O)N(C)[C@@H](Cc2ccccc2)C(=O)N[C@@H]([C@@H](C)O)C(=O)N2CCC[C@H]2C(=O)N[C@@H](CC(C)C)C(=O)N[C@H](C(=O)N2CCCCC2)CC(=O)N[C@@H](C)C(=O)N[C@@H](C(C)C)C(=O)N(C)CC(=O)N[C@@H](CC(C)C)C(=O)N(C)[C@@H](CC(C)C)C(=O)N[C@@H](C)C(=O)N1C [DP-1] (AV[Sar]L[NMeL]A[NMeI]F[NMeF]TPLD-Piperidide; lactam N-13)
microsomal CLint at 1 uM (human, pH 7.4, CL NADPH(+)): 27 µL/min/mg

C=C1CCC(=O)N(C)[C@@H](Cc2ccccc2)C(=O)N(C)CC(=O)N(C)[C@@H](CC(C)C)C(=O)N[C@@H]([C@@H](C)O)C(=O)N(C)[C@@H](C)C(=O)N(C)[C@@H](CC(C)C)C(=O)N(C)[C@@H]([C@@H](C)CC)C(=O)N[C@@H](COC(C)(C)C)C(=O)N[C@H](C(=O)N2CCCCC2)Cc2ccc1cc2 [DP-830]
microsomal CLint at 1 uM [1]: 321 µL/min/mg

CC[C@H](C)[C@H]1C(=O)N[C@H](C(=O)N2CCCCC2)CC(=O)N[C@@H](C)C(=O)N[C@@H]([C@@H](C)O)C(=O)N(C)[C@@H](Cc2ccccc2)C(=O)N[C@@H](CC(C)C)C(=O)N2CCC[C@H]2C(=O)N(C)[C@@H](C(C)C)C(=O)N[C@@H](Cc2ccccc2)C(=O)N(C)CC(=O)N(C)[C@@H](CC(C)C)C(=O)N[C@@H](C)C(=O)N1C [DP-27] (AT[NMeF]LP[NMeV]F[Sar][NMeL]A[NMeI]D-Piperidide; lactam N-12)
microsomal CLint at 1 uM [1]: 31 µL/min/mg

CC[C@H](C)[C@H](NC(=O)[C@H](Cc1ccccc1)N(C)C(=O)[C@@H]1CC(=O)N(C)[C@@H](C)C(=O)N[C@@H](Cc2ccccc2)C(=O)N(C)[C@@H](CC(C)C)C(=O)N(C)[C@@H](CC(C)C)C(=O)N[C@@H](Cc2ccccc2)C(=O)N(C)[C@@H](CC(C)C)C(=O)N[C@@H]([C@@H](C)CC)C(=O)N2CCC[C@H]2C(=O)N[C@@H]([C@@H](C)O)C(=O)N[C@@H](CC(C)C)C(=O)N1)C(=O)N1CCCCC1 [DP-962] ([NMeA]F[NMeL][NMeL]F[NMeL]IPTLD[NMeF]I-Piperidide; lactam N-11)
microsomal CLint at 1 uM (human, pH 7.4, CL NADPH(+)): 22 µL/min/mg

CC[C@H](C)[C@@H]1NC(=O)[C@H](C)NC(=O)C[C@@H](C(=O)N2CCCCC2)NC(=O)[C@H](C(C)C)NC(=O)[C@H](Cc2ccccc2)N(C)C(=O)[C@H](CC(C)C)NC(=O)[C@H]([C@@H](C)O)NC(=O)[C@H](Cc2ccccc2)NC(=O)[C@H](C)NC(=O)CN(C)C(=O)[C@H](CC(C)C)NC1=O [DP-28] (AIL[Sar]AFTL[NMeF]VD-Piperidide; lactam N-11)
microsomal CLint at 1 uM (human, pH 7.4, CL NADPH(+)): 113 µL/min/mg

CC[C@H](C)[C@@H]1NC(=O)[C@H](C)NC(=O)[C@H](CC(C)C)N(C)C(=O)[C@H](CC(C)C)NC(=O)[C@H](Cc2ccccc2)NC(=O)[C@H](C(C)C)NC(=O)[C@H](C)N(C)C(=O)[C@H](CC(C)C)NC(=O)[C@H](Cc2ccccc2)N(C)C(=O)[C@H]([C@@H](C)O)NC(=O)CNC(=O)[C@H](C)NC(=O)C[C@@H](C(=O)N2CCCCC2)NC1=O [DP-87] (AGT[NMeF]L[NMeA]VFL[NMeL]AID-Piperidide; lactam N-13)
microsomal CLint at 1 uM [1]: 120 µL/min/mg

CC(C)C[C@H]1C(=O)N(C)[C@@H](CC(C)C)C(=O)N[C@@H](C)C(=O)N[C@H](C(=O)N(C)[C@@H](Cc2ccccc2)C(=O)N[C@@H](C)C(=O)N2CCCCC2)CC(=O)N[C@@H](C)C(=O)N[C@@H](Cc2ccccc2)C(=O)N(C)[C@@H](CC(C)C)C(=O)N[C@@H](CC#N)C(=O)N(C)[C@@H](Cc2ccccc2)C(=O)N[C@@H](C)C(=O)N1C [DP-613] (AF[NMeL][Ala(CN)][NMeF]A[NMeL][NMeL]AD[NMeF]A-Piperidide; lactam N-10)
microsomal CLint at 1 uM [1]: 37 µL/min/mg

CCN1C(=O)[C@H](CC(C)C)N(C)C(=O)[C@H](CC(C)C)NC(=O)[C@@H](C)N(C)C(=O)C[C@@H](C(=O)N2CCCCC2)NC(=O)[C@H](CC(C)C)N(C)C(=O)CN(C)C(=O)[C@H]([C@@H](C)O)NC(=O)[C@H](CC(C)C)N(C)C(=O)[C@H](Cc2ccccc2)N(C)C(=O)[C@H](C)NC(=O)[C@@H]1Cc1ccccc1 [DP-636] ([dNMeA]L[NMeL][NEtPhe]A[NMeF][NMeL]T[Sar][NMeL]D-Piperidide; lactam N-11)
microsomal CLint at 1 uM [1]: 73 µL/min/mg

CC(C)C[C@@H]1NC(=O)[C@H](CC(C)C)N(C)C(=O)[C@H](CC(C)C)N(C)C(=O)CNC(=O)[C@H](Cc2ccccc2)N(C)C(=O)[C@H]([C@@H](C)O)NC(=O)[C@H](CC(C)C)N(C)C(=O)[C@H](Cc2ccc(O)c(F)c2)NC(=O)[C@H](C)NC(=O)C[C@@H](C(=O)N(C)[C@@H](Cc2ccccc2)C(=O)N[C@@H](C)C(=O)N2CCCCC2)NC1=O [DP-605] (A[Tyr(3-F)][NMeL]T[NMeF]G[NMeL][NMeL]LD[NMeF]A-Piperidide; lactam N-10)
microsomal CLint at 1 uM [1]: 30 µL/min/mg

CC[C@H](C)[C@@H]1NC(=O)[C@H](Cc2ccccc2)N(C)C(=O)[C@H](Cc2ccccc2)N(C)C(=O)[C@H](CC(C)C)N(C)C(=O)[C@H](CC(C)C)NC(=O)[C@H](CC(C)C)N(C)C(=O)[C@H](C)N(C)C(=O)[C@H]([C@@H](C)O)NC(=O)[C@H](C)NC(=O)C[C@@H](C(=O)N2CCCCC2)NC(=O)[C@H](C(C)C)N(C)C(=O)[C@@H]2CCCN2C1=O [DP-12] (AT[NMeA][NMeL]L[NMeL][NMeF][NMeF]IP[NMeV]D-Piperidide; lactam N-12)
microsomal CLint at 1 uM (human, pH 7.4, CL NADPH(+)): 32 µL/min/mg

CC[C@H](C)[C@H]1C(=O)N[C@@H](C)C(=O)N(C)[C@@H](Cc2ccccc2)C(=O)N(C)[C@@H](Cc2ccccc2)C(=O)N[C@@H]([C@@H](C)O)C(=O)N(C)[C@@H](CC(C)C)C(=O)N2CCC[C@H]2C(=O)N[C@H](C(=O)N2CCCCC2)CC(=O)N[C@@H](C)C(=O)N[C@@H](C(C)C)C(=O)N(C)[C@@H](CC(C)C)C(=O)N(C)CC(=O)N(C)[C@@H](CC(C)C)C(=O)N1C [DP-2] (AV[NMeL][Sar][NMeL][NMeI]A[NMeF][NMeF]T[NMeL]PD-Piperidide; lactam N-13)
microsomal CLint at 1 uM (human, pH 7.4, CL NADPH(+)): 7 µL/min/mg

CC(C)C[C@@H]1NC(=O)[C@H](CC(C)C)N(C)C(=O)[C@H](C)N(C)C(=O)[C@@H](C(C)C)NC(=O)C[C@@H](C(=O)N2CCCCC2)NC(=O)[C@H]([C@@H](C)O)NC(=O)[C@H](Cc2ccccc2)N(C)C(=O)[C@H](C)N(C)C(=O)[C@H](CC(C)C)N(C)C(=O)[C@H](CC#N)NC(=O)[C@H](Cc2ccccc2)N(C)C1=O [DP-630] ([dV][NMeA][NMeL]L[NMeF][Ala(CN)][NMeL][NMeA][NMeF]TD-Piperidide; lactam N-11)
microsomal CLint at 1 uM [1]: 34 µL/min/mg

CC[C@H](C)[C@H]1C(=O)N[C@@H](COC(C)(C)C)C(=O)N[C@H](C(=O)N2CCCCC2)Cc2ccc(cc2)CCCCCC(=O)N(C)[C@@H](Cc2ccccc2)C(=O)N(C)CC(=O)N(C)[C@@H](CC(C)C)C(=O)N[C@@H]([C@@H](C)O)C(=O)N(C)[C@@H](C)C(=O)N(C)[C@@H](CC(C)C)C(=O)N1C [DP-832] ([NMeF][Sar][NMeL]T[NMeA][NMeL][NMeI]S(tBu)[Phe(4-(CH2)5CO)]-Piperidide; lactam N-9)
microsomal CLint at 1 uM [1]: 850 µL/min/mg

CC(C)C[C@H]1C(=O)N[C@@H](COC(C)(C)C)C(=O)N[C@H](C(=O)N2CCCCC2)CC(=O)N(C)[C@@H](C)C(=O)N(C)[C@@H](C)C(=O)N(C)[C@@H](Cc2ccccc2)C(=O)N(C)[C@@H](CC(C)C)C(=O)N[C@@H]([C@@H](C)O)C(=O)N(C)CC(=O)N1C [Compound P-120, MeAla-MeAla-MePhe-MeLeu-Thr-MeGly-MeLeu-Ser(tBu)-Asp-piperidine] ([NMeA][NMeA][NMeF][NMeL]T[Sar][NMeL]S(tBu)D-Piperidide; lactam N-9)
Hepatic microsome CLhint (Human) In the absence of NADPH: 5 ul/min/mg Protein
